# Measurements from article PMC10673995, “Discovery of a novel cardiac-specific myosin modulator using artificial intelligence-based virtual screening” (Nature Communications, 2023).
# Values joined by “and” are separate entries in the source; they are usually repeats but may differ in a detail not shown here. Equal values may be shown once.
# How the values were obtained:
# [1] = target: bovine cardiac myosin S1 (Bos taurus, UniProt Q9BE39); assay: mant-ATP chase single nucleotide turnover, myosin S1; conditions: for Representative Traces (mant-ATP chase, normalised signal): representative trace, sheet Figure 3a;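 as to all read-outs here: 0.4 µM S1 preloaded with equimolar mant-ATP, chased by 2 mM ATP, mant fluorescence (ex 360, em 450 nm) read each second over 15 min at 25 °C, biexponential fit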
# Text: Chase of mant-ATP loaded cardiac myosin S1 with ATP leads to a decrease in the mant fluorescence intensity which is best described by a bi-exponential decay function with an initial fast phase followed by a second slower phase, corresponding to the so-called disordered (DRX) and super-relaxed state (SRX) of myosin, respectively.
# [2] = target: T1, synthetic thick filaments formed from purified full-length bovine β-cardiac myosin (Bos taurus, UniProt Q9BE39); assay: mant-ATP chase single nucleotide turnover, synthetic thick filaments; format: biochemical; conditions: for Representative Traces (mant-ATP chase, fluorescence signal over time): Figure 3b
# T1 construct: diluting full-length bovine cardiac myosin stock into assay buffer; from tissue; host or cells: bovine cardiac muscle (the text says isolated/purified and describes no preparation)
# Text: We used systems of increasing complexity ranging from the isolated cardiac myosin motor domains (Fig. 3a) to synthetic thick filaments formed from purified full-length bovine cardiac myosin (Fig. 3b) and bovine cardiac myofibrils as substrates in the chase assays (Fig. 3c). In contrast to the isolated myosin motors, synthetic thick filaments contain two myosin head domains per molecule connected via their coiled-coil tail.
# Synthetic thick filaments were freshly prepared by diluting full-length bovine cardiac myosin stock into assay buffer (composition in mmol L^−1: 15 PIPES pH 7, 5 MgCl2, 1 DTT) and incubation on ice for 2 h. Bovine myosin S1 and synthetic thick filament concentrations were adjusted to 0.4 μmol L^−1 with assay buffer and 40 μL aliquoted into individual wells of a black 384-well plate (Greiner). Mant-ATP (JenaBioscience) was added to each well to a final concentration of 0.4 μmol L^−1 using an automated injector unit in a ClarioStar Plate Reader (BMG LabTech) and the system was allowed to age for 1 min. The chase phase was started by adding a final concentration of 2 mmol L^−1 ATP using a second automated injector unit. Fluorescence intensity from each well was constantly measured for 15 min every 1 sec at 25 °C with the following settings: excitation at 360 nm with a 20 nm bandwidth and emission at 450 nm with a 20 nm bandwidth. For experiments with cardiac myofibrils the concentration was adjusted to 1 mg m L^−1, and the mant-ATP and ATP concentrations were increased to 20 μmol L^−1 and 20 mmol L^−1, respectively.
# [3] = Beta-cardiac myosin S1, individual replicates
# [4] = Synthetic Myosin Filaments, individual replicates
# Sequence of bovine cardiac myosin S1 (Q9BE39 85-778 limits assumed): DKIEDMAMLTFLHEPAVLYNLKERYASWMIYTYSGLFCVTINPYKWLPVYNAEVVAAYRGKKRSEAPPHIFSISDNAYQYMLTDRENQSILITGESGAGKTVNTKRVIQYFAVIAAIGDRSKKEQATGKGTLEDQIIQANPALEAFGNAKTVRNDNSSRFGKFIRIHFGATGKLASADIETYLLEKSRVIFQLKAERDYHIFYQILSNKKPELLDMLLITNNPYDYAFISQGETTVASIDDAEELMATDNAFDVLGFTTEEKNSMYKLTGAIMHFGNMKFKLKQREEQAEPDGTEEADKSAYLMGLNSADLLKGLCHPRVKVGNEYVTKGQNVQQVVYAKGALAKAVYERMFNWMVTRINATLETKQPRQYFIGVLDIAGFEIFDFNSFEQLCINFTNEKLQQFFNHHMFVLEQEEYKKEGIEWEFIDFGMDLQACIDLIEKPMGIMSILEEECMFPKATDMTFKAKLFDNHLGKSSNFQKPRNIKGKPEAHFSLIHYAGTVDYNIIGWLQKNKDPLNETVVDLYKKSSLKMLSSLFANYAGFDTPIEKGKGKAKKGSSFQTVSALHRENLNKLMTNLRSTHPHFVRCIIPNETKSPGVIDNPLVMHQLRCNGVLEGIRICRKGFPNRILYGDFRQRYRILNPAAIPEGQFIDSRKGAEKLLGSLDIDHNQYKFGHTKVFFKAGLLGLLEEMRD
# Sequence of bovine cardiac myosin S1 (P85100 whole entry partner): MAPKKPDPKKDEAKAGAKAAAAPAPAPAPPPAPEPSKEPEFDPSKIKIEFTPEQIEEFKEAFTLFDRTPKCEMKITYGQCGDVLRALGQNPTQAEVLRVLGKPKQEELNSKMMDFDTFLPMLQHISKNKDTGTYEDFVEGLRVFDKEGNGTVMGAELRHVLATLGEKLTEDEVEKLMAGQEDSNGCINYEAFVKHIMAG
# T1 sequence (Q9BE39 whole entry): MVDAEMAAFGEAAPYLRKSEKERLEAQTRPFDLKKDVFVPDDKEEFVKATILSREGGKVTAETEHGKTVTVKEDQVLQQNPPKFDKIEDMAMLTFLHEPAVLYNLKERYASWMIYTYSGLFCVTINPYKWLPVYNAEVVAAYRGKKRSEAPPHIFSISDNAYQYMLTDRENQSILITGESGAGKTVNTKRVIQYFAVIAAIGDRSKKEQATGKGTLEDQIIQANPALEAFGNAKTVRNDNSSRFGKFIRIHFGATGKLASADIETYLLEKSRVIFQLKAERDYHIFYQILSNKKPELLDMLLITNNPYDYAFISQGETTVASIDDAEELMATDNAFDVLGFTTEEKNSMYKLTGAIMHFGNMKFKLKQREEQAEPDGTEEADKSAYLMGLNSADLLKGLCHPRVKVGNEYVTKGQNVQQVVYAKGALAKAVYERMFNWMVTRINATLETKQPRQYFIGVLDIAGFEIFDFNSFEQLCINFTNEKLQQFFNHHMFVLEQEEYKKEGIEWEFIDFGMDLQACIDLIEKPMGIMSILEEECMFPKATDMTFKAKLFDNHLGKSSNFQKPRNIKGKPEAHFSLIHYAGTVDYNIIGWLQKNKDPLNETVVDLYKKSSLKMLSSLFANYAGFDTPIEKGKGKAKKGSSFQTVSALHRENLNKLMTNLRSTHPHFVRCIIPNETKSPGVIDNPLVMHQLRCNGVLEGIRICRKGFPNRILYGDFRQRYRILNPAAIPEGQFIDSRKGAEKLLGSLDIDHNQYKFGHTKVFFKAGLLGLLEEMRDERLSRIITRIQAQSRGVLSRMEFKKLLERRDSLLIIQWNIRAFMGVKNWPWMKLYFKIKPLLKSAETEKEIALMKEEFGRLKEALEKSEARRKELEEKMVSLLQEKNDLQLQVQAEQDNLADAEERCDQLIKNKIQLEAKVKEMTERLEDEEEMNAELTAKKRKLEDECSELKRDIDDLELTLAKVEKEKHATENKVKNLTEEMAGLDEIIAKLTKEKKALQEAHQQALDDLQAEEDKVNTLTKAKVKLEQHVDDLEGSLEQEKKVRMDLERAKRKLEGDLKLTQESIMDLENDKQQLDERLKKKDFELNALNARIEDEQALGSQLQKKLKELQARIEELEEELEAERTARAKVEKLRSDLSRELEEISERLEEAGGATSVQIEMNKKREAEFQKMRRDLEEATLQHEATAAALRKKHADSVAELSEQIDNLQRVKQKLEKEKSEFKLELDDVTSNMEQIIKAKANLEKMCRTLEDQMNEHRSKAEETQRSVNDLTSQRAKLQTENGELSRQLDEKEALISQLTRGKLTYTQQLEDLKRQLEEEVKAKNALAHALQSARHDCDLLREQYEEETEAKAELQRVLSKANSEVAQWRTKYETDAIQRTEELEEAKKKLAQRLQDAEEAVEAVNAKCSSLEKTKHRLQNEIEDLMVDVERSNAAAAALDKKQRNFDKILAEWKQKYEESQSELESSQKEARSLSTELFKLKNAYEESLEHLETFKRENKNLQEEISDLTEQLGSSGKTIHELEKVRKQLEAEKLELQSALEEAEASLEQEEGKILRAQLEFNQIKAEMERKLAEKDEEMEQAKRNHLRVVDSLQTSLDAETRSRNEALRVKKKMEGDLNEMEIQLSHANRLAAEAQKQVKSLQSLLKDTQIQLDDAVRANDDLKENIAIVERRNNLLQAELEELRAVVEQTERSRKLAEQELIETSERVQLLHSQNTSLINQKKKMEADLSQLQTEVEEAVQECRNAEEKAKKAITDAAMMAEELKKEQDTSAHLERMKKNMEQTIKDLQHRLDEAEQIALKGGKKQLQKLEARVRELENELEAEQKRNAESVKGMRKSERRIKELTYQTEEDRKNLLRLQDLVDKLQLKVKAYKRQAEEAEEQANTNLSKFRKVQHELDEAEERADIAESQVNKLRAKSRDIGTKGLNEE
# T1 sequence (P85100 whole entry partner): as the sequence (P85100 whole entry partner) above
# T1 sequence (Q3SZE5 whole entry partner): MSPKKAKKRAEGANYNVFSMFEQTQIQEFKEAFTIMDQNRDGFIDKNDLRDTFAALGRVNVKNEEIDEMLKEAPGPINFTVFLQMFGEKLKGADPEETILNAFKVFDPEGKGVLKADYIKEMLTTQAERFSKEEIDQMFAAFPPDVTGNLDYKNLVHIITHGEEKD
smiles,measurement,setting,value
CCc1cc2c(=O)n(NC(=S)NC(C)C)cnc2s1 [F10],kslow,"[1]; 2 μmol L^-1 Mavacamten or 20 μmol L^-1 F10, control 0.0058 ± 0.0010",0.0014 ± 0.0002 s⁻¹
same,kfast,[1]; [3],0.05055 s⁻¹ and 0.0447 s⁻¹ and 0.0368 s⁻¹ and 0.05306 s⁻¹ and 0.06378 s⁻¹ and 0.02378 s⁻¹
same,kslow,[1]; [3],0.0006967 s⁻¹ and 0.00183 s⁻¹ and 0.001814 s⁻¹ and 0.000778 s⁻¹ and 0.001483 s⁻¹ and 0.001764 s⁻¹
same,slow phase,[1]; [3],77.15% and 78.62% and 63.91% and 49.91% and 65.48% and 83.8%
same,"Representative Traces, normalised fluorescence",[1]; t 396 s,0.3381
same,"Representative Traces, normalised fluorescence",[1]; t 397 s,0.3913
same,"Representative Traces, normalised fluorescence",[1]; t 398 s,0.3527
same,"Representative Traces, normalised fluorescence",[1]; t 399 s,0.3731
same,"Representative Traces, normalised fluorescence",[1]; t 400 s,0.3893
same,"Representative Traces, normalised fluorescence",[1]; t 401 s,0.3649
same,"Representative Traces, normalised fluorescence",[1]; t 402 s,0.346
same,"Representative Traces, normalised fluorescence",[1]; t 403 s,0.3664
same,"Representative Traces, normalised fluorescence",[1]; t 404 s,0.3754
same,"Representative Traces, normalised fluorescence",[1]; t 405 s,0.395
same,"Representative Traces, normalised fluorescence",[1]; t 406 s,0.3542
same,"Representative Traces, normalised fluorescence",[1]; t 407 s,0.3529
same,"Representative Traces, normalised fluorescence",[1]; t 408 s,0.371
same,"Representative Traces, normalised fluorescence",[1]; t 409 s,0.3805
same,"Representative Traces, normalised fluorescence",[1]; t 410 s,0.3829
same,"Representative Traces, normalised fluorescence",[1]; t 411 s,0.3594
same,"Representative Traces, normalised fluorescence",[1]; t 412 s,0.3318
same,"Representative Traces, normalised fluorescence",[1]; t 413 s,0.3454
same,"Representative Traces, normalised fluorescence",[1]; t 414 s,0.3732
same,"Representative Traces, normalised fluorescence",[1]; t 415 s,0.3239
same,"Representative Traces, normalised fluorescence",[1]; t 416 s,0.3536
same,"Representative Traces, normalised fluorescence",[1]; t 417 s,0.3763
same,"Representative Traces, normalised fluorescence",[1]; t 418 s,0.4062
same,"Representative Traces, normalised fluorescence",[1]; t 419 s,0.3409
same,"Representative Traces, normalised fluorescence",[1]; t 420 s,0.3417
same,"Representative Traces, normalised fluorescence",[1]; t 421 s,0.3218
same,"Representative Traces, normalised fluorescence",[1]; t 422 s,0.3761
same,"Representative Traces, normalised fluorescence",[1]; t 423 s,0.3809
same,"Representative Traces, normalised fluorescence",[1]; t 424 s,0.3886
same,"Representative Traces, normalised fluorescence",[1]; t 425 s,0.4176
same,"Representative Traces, normalised fluorescence",[1]; t 426 s,0.3716
same,"Representative Traces, normalised fluorescence",[1]; t 427 s,0.348
same,"Representative Traces, normalised fluorescence",[1]; t 428 s,0.3822
same,"Representative Traces, normalised fluorescence",[1]; t 429 s,0.3572
same,"Representative Traces, normalised fluorescence",[1]; t 430 s,0.3286
same,"Representative Traces, normalised fluorescence",[1]; t 431 s,0.4152
same,"Representative Traces, normalised fluorescence",[1]; t 432 s,0.3207
same,"Representative Traces, normalised fluorescence",[1]; t 433 s,0.376
same,"Representative Traces, normalised fluorescence",[1]; t 434 s,0.351
same,"Representative Traces, normalised fluorescence",[1]; t 435 s,0.3814
same,"Representative Traces, normalised fluorescence",[1]; t 436 s,0.3747
same,"Representative Traces, normalised fluorescence",[1]; t 437 s,0.339
same,"Representative Traces, normalised fluorescence",[1]; t 438 s,0.3394
same,"Representative Traces, normalised fluorescence",[1]; t 439 s,0.2828
same,"Representative Traces, normalised fluorescence",[1]; t 440 s,0.3588
same,"Representative Traces, normalised fluorescence",[1]; t 441 s,0.3824
same,"Representative Traces, normalised fluorescence",[1]; t 442 s,0.3473
same,"Representative Traces, normalised fluorescence",[1]; t 443 s,0.3776
same,"Representative Traces, normalised fluorescence",[1]; t 444 s,0.2942
same,"Representative Traces, normalised fluorescence",[1]; t 445 s,0.3451
same,"Representative Traces, normalised fluorescence",[1]; t 446 s,0.3599
same,"Representative Traces, normalised fluorescence",[1]; t 447 s,0.3632
same,"Representative Traces, normalised fluorescence",[1]; t 448 s,0.3962
same,"Representative Traces, normalised fluorescence",[1]; t 449 s,0.3522
same,"Representative Traces, normalised fluorescence",[1]; t 450 s,0.334
same,"Representative Traces, normalised fluorescence",[1]; t 451 s,0.3312
same,"Representative Traces, normalised fluorescence",[1]; t 452 s,0.3355
same,"Representative Traces, normalised fluorescence",[1]; t 453 s,0.3202
same,"Representative Traces, normalised fluorescence",[1]; t 454 s,0.3011
same,"Representative Traces, normalised fluorescence",[1]; t 455 s,0.3492
same,"Representative Traces, normalised fluorescence",[1]; t 456 s,0.2942
same,"Representative Traces, normalised fluorescence",[1]; t 457 s,0.3901
same,"Representative Traces, normalised fluorescence",[1]; t 458 s,0.3305
same,"Representative Traces, normalised fluorescence",[1]; t 459 s,0.3712
same,"Representative Traces, normalised fluorescence",[1]; t 460 s,0.3492
same,"Representative Traces, normalised fluorescence",[1]; t 461 s,0.3691
same,"Representative Traces, normalised fluorescence",[1]; t 462 s,0.3499
same,"Representative Traces, normalised fluorescence",[1]; t 463 s,0.3959
same,"Representative Traces, normalised fluorescence",[1]; t 464 s,0.3352
same,"Representative Traces, normalised fluorescence",[1]; t 465 s,0.2964
same,"Representative Traces, normalised fluorescence",[1]; t 466 s,0.3332
same,"Representative Traces, normalised fluorescence",[1]; t 467 s,0.3397
same,"Representative Traces, normalised fluorescence",[1]; t 468 s,0.2957
same,"Representative Traces, normalised fluorescence",[1]; t 469 s,0.3164
same,"Representative Traces, normalised fluorescence",[1]; t 470 s,0.3318
same,"Representative Traces, normalised fluorescence",[1]; t 471 s,0.303
same,"Representative Traces, normalised fluorescence",[1]; t 472 s,0.2843
same,"Representative Traces, normalised fluorescence",[1]; t 473 s,0.3488
same,"Representative Traces, normalised fluorescence",[1]; t 474 s,0.3514
same,"Representative Traces, normalised fluorescence",[1]; t 475 s,0.3348
same,"Representative Traces, normalised fluorescence",[1]; t 476 s,0.2621
same,"Representative Traces, normalised fluorescence",[1]; t 477 s,0.3016
same,"Representative Traces, normalised fluorescence",[1]; t 478 s,0.2808
same,"Representative Traces, normalised fluorescence",[1]; t 479 s,0.2939
same,"Representative Traces, normalised fluorescence",[1]; t 480 s,0.3383
same,"Representative Traces, normalised fluorescence",[1]; t 481 s,0.3502
same,"Representative Traces, normalised fluorescence",[1]; t 482 s,0.3436
same,"Representative Traces, normalised fluorescence",[1]; t 483 s,0.4051
same,"Representative Traces, normalised fluorescence",[1]; t 484 s,0.3367
same,"Representative Traces, normalised fluorescence",[1]; t 485 s,0.376
same,"Representative Traces, normalised fluorescence",[1]; t 486 s,0.3528
same,"Representative Traces, normalised fluorescence",[1]; t 487 s,0.3472
same,"Representative Traces, normalised fluorescence",[1]; t 488 s,0.3853
same,"Representative Traces, normalised fluorescence",[1]; t 489 s,0.3935
same,"Representative Traces, normalised fluorescence",[1]; t 490 s,0.3358
same,"Representative Traces, normalised fluorescence",[1]; t 491 s,0.3169
same,"Representative Traces, normalised fluorescence",[1]; t 492 s,0.3123
same,"Representative Traces, normalised fluorescence",[1]; t 493 s,0.2845
same,"Representative Traces, normalised fluorescence",[1]; t 494 s,0.2849
same,"Representative Traces, normalised fluorescence",[1]; t 495 s,0.3259
same,"Representative Traces (mant-ATP chase, normalised signal)",[1]; t = 796 s,0.1783
same,"Representative Traces (mant-ATP chase, normalised signal)",[1]; t = 797 s,0.1159
same,effect on the rate of the fast DRX phase,[2],no effect
same,"Bar graph (Figure 3b, mant-ATP chase)","[2]; Figure 3b source data, individual replicate values",60.72 and 53.1 and 55.77 and 61 and 84.67 and 56.52 and 70.86
same,"Representative Traces (mant-ATP chase, fluorescence signal over time)",[2]; t = 796 s,0.1829
same,"Representative Traces (mant-ATP chase, fluorescence signal over time)",[2]; t = 797 s,0.2272
same,kfast,[2]; [4],0.05914 s⁻¹ and 0.02268 s⁻¹ and 0.03788 s⁻¹ and 0.03196 s⁻¹ and 0.0963 s⁻¹ and 0.1619 s⁻¹
same,kslow,[2]; [4],0.004733 s⁻¹ and 0.003729 s⁻¹ and 0.003941 s⁻¹ and 0.001622 s⁻¹ and 0.001835 s⁻¹ and 0.001574 s⁻¹
same,slow phase,[2]; [4],53.1% and 55.77% and 61% and 84.67% and 56.52% and 70.86%
same,kslow,[2]; control 0.0046 ± 0.0007,0.0027 ± 0.0005 s⁻¹
same,Slow Phase [%] (SRX amplitude),[2]; control 22.9 ± 2.8,63.2 ± 4.2% and ~63%
same,kfast,[2]; control […],0.0784 ± 0.0208 s⁻¹
